Experiments:
[1] = system: calf thymus dsDNA; assay: Competition fluorescence displacement, competitor dsDNA; assay type: binding; conditions: for binding selectivity for DNA G4s over dsDNA: competition fluorescence displacement, 1 and 5 equivalents; for Ki: competitor binding affinity, Ki refers to the base-pair concentration, 20 nM compound, 20° C., pH 7, 100 mM K+
Description: (§1) Using a competition fluorescence displacement assay, the binding selectivity of five indenoisoquinolines for MycG4 was determined as compared to a parallel K-Ras promoter G4, a hybrid telomeric G4, and double-stranded (ds) DNA at 1 and 5 equivalents of each compound (FIGS. 7 and 16A-16C). The 3′-TAMRA labeled MycPu22 DNA was used as the fluorescence probe, whose fluorescence was quenched upon the binding of indenoisoquinolines. Upon addition of unlabeled, non-fluorescent competitors (e.g. other DNA G4s and dsDNA), the TAMRA-labeled MycPu22 DNA is displaced by the competitor DNA for indenoisoquinoline binding and the initial high TAMRA-fluorescence is restored. The competition fluorescence displacement assay allows for a straightforward assessment of selective binding towards MycG4 vs. the competitors, i.e. MycG4s (parallel), K-Ras G4 (parallel), telomeric G4 (hybrid), and dsDNA. One and five compound equivalents were used to assess the selectivity of the strongest binding site and other binding sites of each indenoisoquinoline. […] As shown in the modeling study, the substituents on the A- and D-rings of indenoisoquinolines likely contribute to binding MycG4 by more optimal stacking interactions with the external G-tetrads. On the other hand, the increased size of the indenoisoquinoline ring system may hinder intercalation in dsDNA due to possible steric collision with the DNA backbone. […] 6-Substituted indenoisoquinolines were previously reported to bind to the c-Kit promoter G4s which were also primarily parallel.^17
(§2) The competition fluorescence displacement experiments were performed on a Jasco FP-8300 Spectrofluorometer equipped with a temperature controller at 20° C. The stock solution containing 2 μM 3′-TAMRA-labelled MycPu22 oligonucleotide was diluted to 20 nM using 75 mM KCl, 25 mM phosphate buffer at pH 7.0. To check the binding selectivity of each compound to MycG4 DNA, 20 nM or 100 nM of the indenoisoquinoline was added to the DNA solution in a total volume of 1.6 mL in a quartz cell with a 10 mm path length. Subsequently, various unlabeled MycG4s (MycPu22 and MycPu28), K-Ras G4, telomeric G4 DNAs, or calf thymus dsDNA were gradually added to the complex solution. For each addition of the DNA, the sample was equilibrated at least 2 min. The fluorescence spectrum was recorded between 570 and 600 nm with an excitation wavelength of 555 nm, 10 nm bandwidths, 100 nm/min of scan speed, and 1 s of response time. The fluorescence intensities at the emission maximum (Δmax=580 nm) were plotted for figures. The competitor binding affinities (K, values) were calculated by
(§3) using data from 20 nM compound. The C50 value was the concentration of the unlabeled competing DNA that recovers the fluorescence of the labelled DNA by 50%. [L] represents the ligand concentration that is a constant value of 20 nM. Kd,app values were obtained by fluorescence-based binding assay.

[2] = biological target: MycPu28; assay: Competition fluorescence displacement, competitor MycPu28; design: species or system human; conditions: competitor binding affinity; 20 nM 3′-TAMRA MycPu22, 20 nM compound, 20° C., pH 7, 100 mM K+
Description: as §1, §2, §3

[3] = system: Telomeric G4 (hybrid); assay: Competition fluorescence displacement, competitor telomeric G4; assay type: binding; conditions: for binding selectivity for parallel G4s over hybrid G4: competition fluorescence displacement, 1 and 5 equivalents; for Ki: competitor binding affinity, 20 nM 3′-TAMRA MycPu22, 20 nM compound, 20° C., pH 7, 100 mM K+
Description: as §1, §2, §3

[4] = system: MycG4 (MycPu22 DNA); assay: 1H NMR titration of MycPu22 DNA; assay type: binding, human; conditions: 150 μM DNA, 25° C., pH 7, 100 mM K+
From the text: The binding interactions of six selected indenoisoquinolines with MycG4 were examined using ^1H NMR titration experiments in K^+-containing solution. […] The binding appeared to be in the medium-to-fast exchange rate on the NMR time-scale, as shown by the broadening of DNA proton peaks at lower drug equivalence (0.5 and 1) and the sharpening at higher drug equivalence (2 and 3). […] The MycG4 complexes of the five MycG4-interactive indenoisoquinolines were monomeric in nature as shown by native EMSA gels (FIG. 13).
All NMR experiments were conducted using a Bruker AV-500 spectrometer equipped with a Prodigy cryoprobe at 25° C. Watergate water suppression technique was used to suppress water signals. Briefly, each DNA sample was prepared to a final concentration of […] in 75 mM KCl, 25 mM phosphate buffer at pH 7.0, and containing 90/10% H2O/D2O. DNA samples were heated to 95° C. for 5 min then cooled slowly to room temperature for G4 formation. ^1H-NMR titrations were performed by adding increasing amounts of the compound (0.5 to 4 equivalents) to the oligonucleotide solution.

[5] = biological target: K-RasG4 (parallel K-Ras promoter G4); assay: Competition fluorescence displacement, competitor K-Ras G4; conditions: competitor binding affinity; 20 nM 3′-TAMRA MycPu22, 20 nM compound, 20° C., pH 7, 100 mM K+
Description: as §1, §2, §3

[6] = biological target: MycPu22; assay: Competition fluorescence displacement, competitor MycPu22; design: species or system human; conditions: competitor binding affinity; 20 nM 3′-TAMRA MycPu22, 20 nM compound, 20° C., pH 7, 100 mM K+
Description: as §1, §2, §3

| SMILES | Ki [2] [nM] | binding selectivity for parallel G4s over hybrid G4 [3] | Ki [3] [nM] | binding to MycG4 by 1H NMR titration [4] | Ki [5] [nM] | Ki [6] [nM] | binding selectivity for DNA G4s over dsDNA [1] | Ki [1] [nM] |
| --- | --- | --- | --- | --- | --- | --- | --- | --- |
| COc1cnc2c(c1)C(=O)c1c-2n(CCCNC(C)C)c(=O)c2cc(F)ccc12 [Compound 5] | 18 | marked selectivity | 164 | more specific binding to MycG4 | 21 | 16 | remarkable selectivity | ~11000 |
| CNCCCn1c2c(c3ccc(F)cc3c1=O)C(=O)c1cc(OC)cnc1-2 [Compound 6] | 33 | marked selectivity | 286 | more specific binding to MycG4 | 32 | 40 | remarkable selectivity | ~12000 |
| O=C1c2ccccc2-c2c1c1ccccc1c(=O)n2CCCNCCO [Compound 13] | 19 | selectivity for parallel G4s over hybrid G4 | 146 | more specific binding to MycG4 | 23 | 26 | much less selectivity against dsDNA | 2140 |

Now those with a lower Ki [2], led by results:

| Ki [2] [nM] | binding selectivity for parallel G4s over hybrid G4 [3] | Ki [3] [nM] | binding to MycG4 by 1H NMR titration [4] | Ki [5] [nM] | Ki [6] [nM] | SMILES | binding selectivity for DNA G4s over dsDNA [1] | Ki [1] [nM] |
| --- | --- | --- | --- | --- | --- | --- | --- | --- |
| 11 | much less selectivity | 28 | less well-defined MycG4 complexes | 11 | 12 | COc1cnc2c(c1)C(=O)c1c-2n(CCCN2CCCC2)c(=O)c2cc([N+](=O)[O-])ccc12 [Compound 9] | remarkable selectivity | 5170 |
| 7 | much less selectivity | 14 | less well-defined MycG4 complexes | 7 | 7 | COc1cnc2c(c1)C(=O)c1c-2n(CCCNC2=NCCS2)c(=O)c2cc([N+](=O)[O-])ccc12 [Compound 12] | remarkable selectivity | 3620 |
